Measurements published in US20020150901A1, “Novel nucleic acids, polypeptides, methods of making, and uses thereof” (priority 2000, published 2002).
Entries after “also recorded” stand apart in the source; their conditions may differ.

Tests used:
Type in all cases: cell-based
[1] = system: "dummy" transfected control COS-7 cells; assay: Aequorin bioluminescence assay, "dummy" transfected control COS-7 cells (no leukotriene receptor); details: 200 nM agonist, COS-7 cells with "dummy" insert and aequorin
Text: (§1) The photoprotein aequorin, originally isolated from luminescent jellyfish, has proven to be a highly sensitive and quantitative bioluminescence Ca^2+ indicator in cells.
(§2) The aequorin complex contains a 22,000 MW apoaequorin protein, oxygen and the luminophore, coelenterazine. When three Ca^2+ ions bind to this complex, coelenterazine is oxidized to coelenteramide, releasing carbon dioxide and light (emission maximum ˜466 nm). Aequorin has a broad detection range, allowing the measurement of Ca^2+ concentrations from ˜0.1 μM to >100 μM.
(§3) The HUMAN CysLT2 GPCR and apoaequorin cDNAs were transiently co-expressed in cells (the aequorin is targeted for expression in mitochondria). Once cells have been transfected with these expression vectors, they are incubated in a medium containing cell-permeant coelenterazine which reconstitutes the aequorin complex. After formation of the active aequorin complex, intracellular Ca^2+ release caused by activation of the HUMAN CysLT2 GPCR is measured by assaying cells for light production using a luminometer.
(§4) COS-7 cells were trypsinized and plated at 1.5×10^5 cells/well in 6 well tissue culture plates. The cells were grown overnight at 37° C. in DMEM supplemented with 10% FBS, 1% glutamine and 1% non essential amino acids. […]

[2] = molecular target: T1, HUMAN CysLT2 GPCR (Homo sapiens, UniProt Q9NS75); assay: Aequorin bioluminescence assay of intracellular calcium release, COS-7 cells expressing HUMAN CysLT2 GPCR; details: 200 nM antagonist injected 10 seconds before 200 nM LTC4 or LTD4
T1 construct: expressed in transfected cells; host or cells: COS-7
T1 sequence (Q9NS75 1-346): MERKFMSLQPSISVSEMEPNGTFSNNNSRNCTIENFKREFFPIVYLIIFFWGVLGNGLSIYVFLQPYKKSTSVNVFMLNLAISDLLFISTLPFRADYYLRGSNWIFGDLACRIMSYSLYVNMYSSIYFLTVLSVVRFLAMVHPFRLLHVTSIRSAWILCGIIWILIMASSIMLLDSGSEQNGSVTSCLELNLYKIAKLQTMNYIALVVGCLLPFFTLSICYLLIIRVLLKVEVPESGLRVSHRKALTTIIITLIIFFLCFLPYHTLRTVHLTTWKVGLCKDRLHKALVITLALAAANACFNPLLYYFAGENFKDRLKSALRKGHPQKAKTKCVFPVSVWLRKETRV
Text: as §1, §2, §3, §4

[3] = molecular target: T2, human CysLT1 receptor (Homo sapiens, UniProt Q9Y271); assay: Aequorin bioluminescence assay of intracellular calcium release, COS-7 cells expressing human CysLT1; details: 200 nM antagonist injected 10 seconds before 200 nM LTC4 or LTD4
T2 construct: expressed in transfected cells; host or cells: COS-7
T2 sequence (Q9Y271 1-337): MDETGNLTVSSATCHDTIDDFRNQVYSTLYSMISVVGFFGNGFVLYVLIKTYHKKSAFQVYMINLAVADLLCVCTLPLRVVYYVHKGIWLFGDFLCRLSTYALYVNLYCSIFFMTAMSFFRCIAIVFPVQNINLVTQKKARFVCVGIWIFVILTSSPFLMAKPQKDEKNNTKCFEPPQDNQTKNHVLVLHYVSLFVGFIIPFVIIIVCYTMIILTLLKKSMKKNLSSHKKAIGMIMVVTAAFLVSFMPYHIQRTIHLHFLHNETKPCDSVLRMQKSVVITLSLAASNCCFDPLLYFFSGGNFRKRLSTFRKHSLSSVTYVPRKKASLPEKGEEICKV

block of LTC4 or LTD4 induced receptor activation by antagonist [3]	Compound	aequorin activation by agonist [1]	block of LTC4 or LTD4 induced receptor activation by antagonist [2]
	CCCCC/C=C\C\C=C/C=C/C=C/[C@@H](SC[C@H](NC(=O)CC[C@H](N)C(=O)O)C(=O)NCC(=O)O)[C@@H](O)CCCC(=O)O [LTC4]	not on the “dummy” transfected control cells	
	CCCCC/C=C\C\C=C/C=C/C=C/[C@@H](SC[C@H](N)C(=O)NCC(=O)O)[C@@H](O)CCCC(=O)O [LTD4]	not on the “dummy” transfected control cells	
effectively blocked	CN(C)C(=O)CCSC(SCCC(=O)O)c1cccc(/C=C/c2ccc3ccc(Cl)cc3n2)c1 (stereo not shown) [MK571]		neither antagonist significantly inhibited; also recorded: failed to block; also recorded: resistance to inhibition
